Laboratory results from patent US6117841A, “Substituted peptidylamine calcium channel blockers” (Warner-Lambert Company, priority 1999, dated 2000).
Where two headings read alike, the source gives them in different places.

Target: T1, N-type Ca^2+ Channel (Homo sapiens, UniProt Q00975)
T1 construct: host or cells: IMR-32 cells differentiated with dibutyryl cAMP and bromodeoxyuridine
Assay: Measurement of N-type Ca2+ channel blocking potencies in IMR-32 cells using the fluorescent Ca2+ indicator Indo-1
Format: cell-based
Conditions: for IC50: K+ depolarization, 5 μM nitrendipine to block L-type channels, read-out: IMR 32 IC50
Procedure: Measurement of N-type Ca^2+ Channel Blocking Potencies of Compounds in IMR-32 Cells Using the Fluorescent Ca^2 + Indicator Indo-1
IMR-32 cells are a human tumoral cell line of neural origin. […] Calcium flux into these cells may be induced by stimulation with elevated potassium concentrations. The L-channel component of calcium flux may be blocked by adding 5 μM nitrendipine. The remaining component of calcium entry into the IMR-32 cells is due to calcium flux through N-type calcium channels. Intracellular calcium concentrations are measured using the fluorescent calcium indicator Indo-1. The effect of drug concentration on calcium uptake is studied.
The IMR-32 cell line was obtained from the American Type Culture Collection (Rockville, Md.). Cells were grown in Eagle's Minimum Essential Medium with Earle's salts supplemented with 10% fetal bovine serum, 2 mM L-Gln and antibiotic/antimycotic mixture (Gibco). At approximately 80% confluency, differentiation was induced by the addition of 1 mM dibutyryl cAMP and 2.5 μM bromodeoxyuridine to the medium. After 7 to 13 days of differentiation, cells were detached using 0.5 mM EDTA and loaded with 5 μM Indo-1 acetoxymethyl ester (Molecular Probes, Eugene, Oreg.) at 30° C. for 45 minutes. Loaded cells were washed twice, resuspended (~10^7 cells/mL) in assay buffer (10 mM HEPES/Tris pH 7.4 in Hank's Balanced Salt Solution without bicarbonate or phenol red containing 0.5% bovine serum albumin) and kept on ice until use. Fluorescence measurements were carried out in a Photon Technology International (PTI, South Brunswick, N.J.) Model RF-F3004 spectrofluorometer with dual emission monochromators using excitation at 350 nm and emission at 400 and 490 nm. The instrument was equipped with a thermostated cuvette holder with stirring capabilities as well as with a computer-controlled pump which allowed for reagent addition during measurement. Instrument control and data collection was done by PTI's OSCAR software running on an IBM compatible computer. Different concentrations of the test compounds (60 μL in dimethyl sulfoxide) were added to 5.94 mL of assay buffer containing approximately 3×10^6 loaded cells, and 5 μM nitrendipine (in 30 μL EtOH) to block L-type Ca^2+ channels. Samples were incubated for 10 minutes at 30° C. and then aliquoted into three 10×10 mm disposable acrylic cuvettes. Emission signals at 400 and 490 nm were acquired from each cuvette at 30° C. for 50 seconds. At 20 seconds after the start of reading, cells were depolarized by the addition of 160 μL of stimulation solution (1 M KCl, 68 mM CaCl2) to the cuvette via the computer-controlled pump. Ratio of dual emission signals (400 nm/ 490 nm), which is proportional to intracellular Ca^2+ concentration, was plotted against time, and the difference between maximal response after stimulation and basal value (before stimulation) was determined. Values obtained in this way were plotted as a function of drug concentration. IC50 values of test compounds were calculated by fitting a four-parameter logistic function to the data using the least squares method.

[1] = 1 μM, IMR-32 cells, 5 μM nitrendipine
[2] = 10 μM, IMR-32 cells, 5 μM nitrendipine

T1 sequence (Q00975 whole entry): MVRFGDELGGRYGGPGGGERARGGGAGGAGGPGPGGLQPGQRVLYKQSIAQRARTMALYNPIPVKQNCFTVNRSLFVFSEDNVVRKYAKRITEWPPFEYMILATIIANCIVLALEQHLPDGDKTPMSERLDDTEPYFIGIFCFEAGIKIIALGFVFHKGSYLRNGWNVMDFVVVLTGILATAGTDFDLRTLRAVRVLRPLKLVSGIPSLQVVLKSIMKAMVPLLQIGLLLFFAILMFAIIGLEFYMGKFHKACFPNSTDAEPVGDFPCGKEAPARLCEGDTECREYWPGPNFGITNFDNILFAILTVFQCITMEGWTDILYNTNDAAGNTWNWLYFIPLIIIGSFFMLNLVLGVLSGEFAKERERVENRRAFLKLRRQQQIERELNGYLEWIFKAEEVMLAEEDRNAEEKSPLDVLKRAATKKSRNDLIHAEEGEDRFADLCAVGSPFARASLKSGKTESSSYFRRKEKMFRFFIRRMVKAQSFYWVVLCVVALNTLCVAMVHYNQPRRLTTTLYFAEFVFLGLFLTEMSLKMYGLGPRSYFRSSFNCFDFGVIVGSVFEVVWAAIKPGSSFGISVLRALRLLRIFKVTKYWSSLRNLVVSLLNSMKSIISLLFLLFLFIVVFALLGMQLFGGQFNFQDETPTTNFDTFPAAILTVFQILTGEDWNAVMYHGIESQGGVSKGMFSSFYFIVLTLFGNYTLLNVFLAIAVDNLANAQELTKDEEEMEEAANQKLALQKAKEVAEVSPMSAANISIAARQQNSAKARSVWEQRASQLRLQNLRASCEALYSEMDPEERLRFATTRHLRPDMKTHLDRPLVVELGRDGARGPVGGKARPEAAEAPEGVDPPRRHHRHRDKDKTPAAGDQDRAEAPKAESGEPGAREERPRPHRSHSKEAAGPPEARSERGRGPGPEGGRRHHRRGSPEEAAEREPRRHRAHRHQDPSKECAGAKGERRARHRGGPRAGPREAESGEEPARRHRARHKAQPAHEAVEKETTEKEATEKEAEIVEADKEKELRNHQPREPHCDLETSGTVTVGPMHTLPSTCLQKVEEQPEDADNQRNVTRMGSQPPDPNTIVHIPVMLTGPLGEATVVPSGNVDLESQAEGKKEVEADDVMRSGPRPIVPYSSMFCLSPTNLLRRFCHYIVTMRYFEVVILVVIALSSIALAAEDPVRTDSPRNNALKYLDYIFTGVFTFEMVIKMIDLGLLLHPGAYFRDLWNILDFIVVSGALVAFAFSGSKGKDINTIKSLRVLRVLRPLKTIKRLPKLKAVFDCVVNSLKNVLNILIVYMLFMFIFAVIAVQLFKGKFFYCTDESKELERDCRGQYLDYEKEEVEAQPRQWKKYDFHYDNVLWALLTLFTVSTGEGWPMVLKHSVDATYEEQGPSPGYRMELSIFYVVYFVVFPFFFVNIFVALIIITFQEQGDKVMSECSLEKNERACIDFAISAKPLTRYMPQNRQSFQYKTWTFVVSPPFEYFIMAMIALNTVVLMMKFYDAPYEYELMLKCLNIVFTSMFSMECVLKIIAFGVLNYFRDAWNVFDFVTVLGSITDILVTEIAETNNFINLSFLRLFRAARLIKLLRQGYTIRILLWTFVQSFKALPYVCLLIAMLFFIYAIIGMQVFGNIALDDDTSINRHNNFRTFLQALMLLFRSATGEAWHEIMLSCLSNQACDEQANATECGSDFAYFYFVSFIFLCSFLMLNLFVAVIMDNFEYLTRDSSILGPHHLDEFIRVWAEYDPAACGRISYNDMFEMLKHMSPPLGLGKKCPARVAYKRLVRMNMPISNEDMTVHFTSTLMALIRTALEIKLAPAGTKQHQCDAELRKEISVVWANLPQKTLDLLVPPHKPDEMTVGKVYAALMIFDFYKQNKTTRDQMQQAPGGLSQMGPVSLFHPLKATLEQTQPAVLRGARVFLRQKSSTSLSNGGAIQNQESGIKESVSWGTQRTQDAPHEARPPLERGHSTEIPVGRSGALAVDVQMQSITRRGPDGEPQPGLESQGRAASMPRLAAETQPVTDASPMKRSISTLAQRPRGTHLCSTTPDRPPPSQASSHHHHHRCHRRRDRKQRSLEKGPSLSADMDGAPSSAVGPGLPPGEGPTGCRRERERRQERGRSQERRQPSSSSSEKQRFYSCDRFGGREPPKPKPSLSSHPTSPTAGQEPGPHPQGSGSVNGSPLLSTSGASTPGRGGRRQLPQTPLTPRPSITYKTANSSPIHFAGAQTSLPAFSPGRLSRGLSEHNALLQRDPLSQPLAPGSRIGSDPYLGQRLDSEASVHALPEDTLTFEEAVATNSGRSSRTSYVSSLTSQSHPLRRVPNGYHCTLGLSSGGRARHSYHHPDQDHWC
T1 sequence (P54284 whole entry partner): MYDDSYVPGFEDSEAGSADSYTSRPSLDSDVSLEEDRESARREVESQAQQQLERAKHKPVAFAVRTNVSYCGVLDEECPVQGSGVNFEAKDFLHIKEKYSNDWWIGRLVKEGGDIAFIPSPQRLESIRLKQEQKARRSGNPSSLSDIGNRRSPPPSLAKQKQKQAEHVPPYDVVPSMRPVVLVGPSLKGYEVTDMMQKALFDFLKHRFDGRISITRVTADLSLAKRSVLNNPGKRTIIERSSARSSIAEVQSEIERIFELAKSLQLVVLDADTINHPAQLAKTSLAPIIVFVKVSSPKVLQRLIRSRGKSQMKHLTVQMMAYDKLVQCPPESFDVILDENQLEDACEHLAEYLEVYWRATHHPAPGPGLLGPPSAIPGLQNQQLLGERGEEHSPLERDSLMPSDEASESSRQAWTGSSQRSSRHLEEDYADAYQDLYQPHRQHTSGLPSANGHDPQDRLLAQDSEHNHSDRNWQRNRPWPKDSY
T1 sequence (P54289 25-946 partner limits assumed): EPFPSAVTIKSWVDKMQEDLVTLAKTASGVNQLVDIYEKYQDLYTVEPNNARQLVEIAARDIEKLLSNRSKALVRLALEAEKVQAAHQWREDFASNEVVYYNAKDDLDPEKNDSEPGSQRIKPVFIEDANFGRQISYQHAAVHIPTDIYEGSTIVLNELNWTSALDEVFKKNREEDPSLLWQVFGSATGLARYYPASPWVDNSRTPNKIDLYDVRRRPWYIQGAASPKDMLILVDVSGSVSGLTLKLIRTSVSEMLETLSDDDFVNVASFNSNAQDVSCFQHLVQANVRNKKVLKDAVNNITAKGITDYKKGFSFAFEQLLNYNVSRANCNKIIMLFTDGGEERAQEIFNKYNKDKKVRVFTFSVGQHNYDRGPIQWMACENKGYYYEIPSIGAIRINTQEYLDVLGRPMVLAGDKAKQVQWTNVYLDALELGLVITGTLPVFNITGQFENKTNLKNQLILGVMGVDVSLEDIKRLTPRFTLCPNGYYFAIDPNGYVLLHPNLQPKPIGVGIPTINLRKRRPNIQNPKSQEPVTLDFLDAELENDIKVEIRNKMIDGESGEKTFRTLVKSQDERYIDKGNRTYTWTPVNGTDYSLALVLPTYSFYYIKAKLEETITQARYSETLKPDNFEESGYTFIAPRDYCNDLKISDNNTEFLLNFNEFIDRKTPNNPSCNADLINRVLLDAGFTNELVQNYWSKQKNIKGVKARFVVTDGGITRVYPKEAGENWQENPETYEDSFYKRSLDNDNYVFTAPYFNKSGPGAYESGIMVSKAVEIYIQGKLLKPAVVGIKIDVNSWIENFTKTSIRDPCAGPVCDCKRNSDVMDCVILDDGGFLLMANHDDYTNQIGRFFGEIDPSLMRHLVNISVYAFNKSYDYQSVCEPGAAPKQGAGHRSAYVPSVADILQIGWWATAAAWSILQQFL
T1 sequence (P54289 947-1103 partner limits assumed): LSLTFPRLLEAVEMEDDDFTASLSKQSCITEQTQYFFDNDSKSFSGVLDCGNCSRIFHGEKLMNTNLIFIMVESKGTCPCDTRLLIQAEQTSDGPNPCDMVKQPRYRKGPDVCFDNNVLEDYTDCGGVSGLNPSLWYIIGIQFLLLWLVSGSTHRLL

Compound | IMR 32 % of Blockade @ 1 μM [1] [%] | IMR 32 % of Blockade @ 10 μM [2] [%] | further results
CC(C)C[C@@H](C(=O)N[C@@H](Cc1ccc(OCc2ccccc2)cc1)C(=O)NC(C)(C)C)N(C)C(C)CO (mixture of isomers) [Example 88, [S-[R*,R*,(RS)]]-2-[(2-Hydroxy-1-methyl-ethyl)-methyl-amino]-4-methyl-pentanoic acid [2-(4-benzyloxy-phenyl)-1-tert-butylcarbamoyl-ethyl]-amide] | 30 | – | –
CC(C)C[C@@H](C(=O)N[C@@H](Cc1ccc(OCc2ccccc2)cc1)C(=O)NC(C)(C)C)N(C)C (relative stereo) [Example 1, [S-(R*,R*)]-2-Dimethylamino-4-methyl-pentanoic acid [2-(4-benzyloxy-phenyl)-1-tert-butylcarbamoyl-ethyl]-amide] | – | – | IC50 (IMR-32 cells): 2300 nM
CC(C)C[C@@H](C(=O)N[C@@H](Cc1ccc(OCc2ccccc2)cc1)C(=O)N1CCCCC1)N(C)C (relative stereo) [Example 2, [S-(R*,R*)]-2-Dimethylamino-4-methyl-pentanoic acid [2-(4-benzyloxy-phenyl)-1-(piperidine-1-carbonyl)-ethyl]-amide] | 36 | 92 | –
CC(C)C[C@@H](C(=O)N[C@@H](Cc1ccc(OCc2ccccc2)cc1)C(=O)N1CCN(C)CC1)N(C)C (relative stereo) [Example 6, [S-(R*,R*)]-2-Dimethylamino-4-methyl-pentanoic acid [1-(4-benzyloxy-benzyl)-2-(4-methyl-piperazin-1-yl)-2-oxo-ethyl]-amide] | – | – | IMR 32 % of Blockade @ 1 μM: 16%; IMR 32 % of Blockade @ 10 μM: 31%
CC(C)CCN(C)[C@@H](CC(C)C)C(=O)N[C@@H](Cc1ccc(OCc2ccccc2)cc1)C(=O)N1CCCCC1 (relative stereo) [Example 8, [S-(R*,R*)]-4-Methyl-2-[methyl-(3-methyl-butyl)-amino]-pentanoic acid [1-(4-benzyloxy-benzyl)-2-oxo-2-piperidin-1-yl-ethyl]-amide] | 70 | 87 | –
CC(C)CCN(C)[C@@H](CC(C)C)C(=O)N[C@@H](Cc1ccc(OCc2ccccc2)cc1)C(=O)NCCN1CCCCC1 (relative stereo) [Example 9, [S-(R*,R*)]-4-Methyl-2-[methyl-(3-methyl-butyl)-amino]-pentanoic acid [2-(4-benzyloxy-phenyl)-1-(2-piperidin-1-yl-ethylcarbamoyl)-ethyl]-amide] | 60 | 89 | –
CC(C)C[C@@H](C(=O)N[C@@H](Cc1ccc(OCc2ccccc2)cc1)C(=O)N1CCCCC1)N(C)Cc1ccc(C(C)(C)C)cc1 (relative stereo) [Example 14, [S-(R*,R*)]-2-[(4-tert-Butyl-benzyl)-methyl-amino]-4-methyl-pentanoic acid [2-(4-benzyloxy-phenyl)-1-(piperidine-1-carbonyl)-ethyl]-amide] | 80 | 85 | –
CC(C)C[C@@H](C(=O)N[C@@H](Cc1ccc(OCc2ccccc2)cc1)C(=O)NCCN1CCCCC1)N(C)Cc1ccc(C(C)(C)C)cc1 (relative stereo) [Example 15, [S-(R*,R*)]-2-[(4-tert-Butyl-benzyl)-methyl-amino]-4-methyl-pentanoic acid [2-(4-benzyloxy-phenyl)-1-(2-piperidin-1-yl-ethylcarbamoyl)-ethyl]-amide] | 56 | 80 | –
CC(C)C[C@@H](C(=O)N[C@@H](Cc1ccc(OCc2ccccc2)cc1)C(=O)NC1CCN(Cc2ccccc2)CC1)N(C)Cc1ccc(C(C)(C)C)cc1 (relative stereo) [Example 17, S-(R*,R*)]-2-[(4-tert-Butyl-benzyl)-methyl-amino]-4-methyl-pentanoic acid [2-(4-benzyloxy-phenyl)-1-(1-benzyl-piperidin-4-yl-carbamoyl)-ethyl]-amide] | – | – | IC50 (IMR-32 cells): 440 nM
CC(C)C[C@@H](C(=O)N[C@@H](Cc1ccc(OCc2ccccc2)cc1)C(=O)NC(C)(C)C)N(C)C1CCCCC1 (relative stereo) [Example 19, [S-(R*,R*)]-2-(Cyclohexyl-methyl-amino)-4-methyl-pentanoic acid [2-(4-benzyloxy-phenyl)-1-tert-butylcarbamoyl-ethyl]-amide] | – | – | IC50 (IMR-32 cells): 200 nM
CC(C)C[C@@H](C(=O)N[C@@H](Cc1ccc(OCc2ccccc2)cc1)C(=O)N1CCCCC1)N(C)C1CCCCC1 (relative stereo) [Example 20, [S-(R*,R*)]-2-(Cyclohexyl-methyl-amino)-4-methyl-pentanoic acid [2-(4-benzyloxy-phenyl)-1-(piperidine-1-carbonyl)-ethyl]-amide] | 65 | 87 | –
CC(C)C[C@@H](C(=O)N[C@@H](Cc1ccc(OCc2ccccc2)cc1)C(=O)NCCN1CCCCC1)N(C)C1CCCCC1 (relative stereo) [Example 21, [S-(R*,R*)]-2-(Cyclohexyl-methyl-amino)4-methyl-pentanoic acid [2-(4-benzyloxy-phenyl)-1-(2-piperidin-1-yl-ethylcarbamoyl)-ethyl]-amide] | – | – | IC50 (IMR-32 cells): 880 nM

Second part, led by results:

IMR 32 % of Blockade @ 1 μM [1] [%] | IMR 32 % of Blockade @ 10 μM [2] [%] | Compound | further results
21 | 70 | CC(C)C[C@@H](C(=O)N[C@@H](Cc1ccc(OCc2ccccc2)cc1)C(=O)NCCN1CCCCC1)N(C)C (relative stereo) [Example 3, [S-(R*,R*)]-2-Dimethylamino-4-methyl-pentanoic acid [2-(4-benzyloxy-phenyl)-1-(2-piperidin-1-yl-ethylcarbamoyl)-ethyl]-amide] | –
50 | 94 | CC(C)C[C@@H](C(=O)N[C@@H](Cc1ccc(OCc2ccccc2)cc1)C(=O)N1CCN(Cc2ccccc2)CC1)N(C)C (relative stereo) [Example 4, [S-(R*,R*)]-2-Dimethylamino-4-methyl-pentanoic acid [1-(4-benzyloxy-benzyl)-2-(4-benzyl-piperazin-1-yl)-2-oxo-ethyl]-amide] | –
24 | 81 | CC(C)C[C@@H](C(=O)N[C@@H](Cc1ccc(OCc2ccccc2)cc1)C(=O)NC1CCN(Cc2ccccc2)CC1)N(C)C (relative stereo) [Example 5, [S-(R*,R*)]-2-Dimethylamino-4-methyl-pentanoic acid [2-(4-benzyloxy-phenyl)-1-(1-benzyl-piperidin-4-yl-carbamoyl)-ethyl]-amide] | –
70 | 89 | CC(C)CCN(C)[C@@H](CC(C)C)C(=O)N[C@@H](Cc1ccc(OCc2ccccc2)cc1)C(=O)NC1CCN(Cc2ccccc2)CC1 (relative stereo) [Example 11, [S-(R*,R*)]-4-Methyl-2-[methyl-(3-methyl-butyl)-amino]-pentanoic acid [2-(4-benzyloxy-phenyl)-1-(1-benzyl-piperidin-4-ylcarbamoyl)-ethyl]-amide] | –
39 | 88 | CC(C)CCN(C)[C@@H](CC(C)C)C(=O)N[C@@H](Cc1ccc(OCc2ccccc2)cc1)C(=O)N1CCN(C)CC1 (relative stereo) [Example 12, [S-(R*,R*)]-4-Methyl-2-[methyl-(3-methyl-butyl)-amino]-pentanoic acid [1-(4-benzyloxy-benzyl)-2-(4-methyl-piperazin-1-yl)-2-oxo-ethyl]-amide] | –
41 | 66 | CC(C)C[C@@H](C(=O)N[C@@H](Cc1ccc(OCc2ccccc2)cc1)C(=O)N1CCN(Cc2ccccc2)CC1)N(C)Cc1ccc(C(C)(C)C)cc1 (relative stereo) [Example 16, [S-(R*,R*)-2-[(4-tert-Butyl-benzyl)-methyl-amino]-4-methyl-pentanoic acid [1-(4-benzyloxy-benzyl)-2-(4-benzyl-piperazin-1-yl)-2-oxo-ethyl]-amide] | –
52 | 95 | CC(C)C[C@@H](C(=O)N[C@@H](Cc1ccc(OCc2ccccc2)cc1)C(=O)N1CCN(C)CC1)N(C)Cc1ccc(C(C)(C)C)cc1 (relative stereo) [Example 18, [S-(R*,R*)]-2-[(4-tert-Butyl-benzyl)-methyl-amino]-4-methyl-pentanoic acid [1-(4-benzyloxy-benzyl)-2-(4-methyl-piperazin-1-yl)-2-oxo-ethyl]-amide] | –
